Data from BigSolDB 2.1.

O=C(O)CCC(=O)C(=O)O
solubility (mole fraction)
Settings | 278.15 K | 280.15 K | 282.15 K | 284.15 K | 286.15 K | 288.15 K | 293.15 K
in ethyl acetate | 0.0358 | 0.0374 | 0.0392 | 0.0418 | 0.0455 | 0.0494 | 0.0603
in n-butyl acetate | 0.0261 | 0.0284 | 0.0303 | 0.0337 | 0.0363 | 0.0391 | 0.0466
in water | 0.11 | 0.114 | 0.12 | 0.128 | 0.135 | 0.146 | 0.168
